# Assay results taken from patent publication US11634447B2 (priority 2012, dated 2023).
# Tested on: bacterial strain LF82 binding to the glycoprotein BSA-(Mannose)3
# Assay: Bacterial Binding Assay (BBA)
# Format: cell-based, Escherichia coli
# Details: read-out: Bacterial Binding Assay IC50, LF82/Luciferase strain binding to BSA-(Man)3 coated plates, luminescence
# Method in brief: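 Inhibition of LF82/luciferase E. coli adhesion is read as luminescence after washing off unbound cells. Compound and bacteria (10^7 per well) are co-incubated 40-75 min at room temperature on wells coated with 0.5-2 μg/mL BSA-(Man)3, with BSA-only wells as background; IC50 values derived.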
structure (smiles),measurement,value
"OC[C@H]1O[C@H](Cc2ccc(-c3ccc(C[C@H]4O[C@H](CO)[C@@H](O)[C@H](O)[C@@H]4O)cc3)cc2)[C@@H](O)[C@@H](O)[C@@H]1O [Compound 41, ((2R,3S,4R,5S,6R)-2-(Hydroxymethyl)-6-[[4-[4-[[(2R,3S,4R,5S,6R)-3,4,5-trihydroxy-6-(hydroxymethyl)tetrahydropyran-2-yl]methyl]phenyl]phenyl]methyl]tetrahydropyran-3,4,5-triol)]",IC50,550 nM
